Values of other authors, collected in patent US8512794B2, “Oleate ester phytosterol compositions” (Perlman Consulting, LLC, priority 2010, dated 2013).

Test system: humans

Row | Compound | lowering of serum cholesterol (12-18 g per day in divided doses, males with atherosclerosis (Faquhar et al. 1956)) | decrease of plasma cholesterol level (9-18 grams per day, coarse powdered form)
1 | CC[C@H](CC[C@@H](C)[C@H]1CC[C@H]2[C@@H]3CC=C4C[C@@H](O)CC[C@]4(C)[C@H]3CC[C@]12C)C(C)C [beta sitosterol] | 15-20% | 
2 | CC[C@H](CC[C@@H](C)[C@H]1CC[C@H]2[C@@H]3CC=C4C[C@@H](O)CC[C@]4(C)[C@H]3CC[C@]12C)C(C)C [sitosterol] |  | approximately 15%
